Here are results for 1 compound from ChEMBL document CHEMBL5678818, “Discovery of potent SOS1 inhibitors that block RAS activation via disruption of the RAS-SOS1 interaction” (Proc Natl Acad Sci U S A, 2019).

Experiment [1] concerns Epidermal growth factor receptor (Homo sapiens), P00533 [T790M]. The experiment can be described thus: Inhibition of EGFR T790M mutant (unknown origin) assessed as residual activity at 100 nM by KINOMEscan analysis relative to control.
Experiment [2] deals with T1, Inhibitor of nuclear factor kappa-B kinase subunit alpha (Homo sapiens) (UniProt O15111).
T1 sequence (whole entry): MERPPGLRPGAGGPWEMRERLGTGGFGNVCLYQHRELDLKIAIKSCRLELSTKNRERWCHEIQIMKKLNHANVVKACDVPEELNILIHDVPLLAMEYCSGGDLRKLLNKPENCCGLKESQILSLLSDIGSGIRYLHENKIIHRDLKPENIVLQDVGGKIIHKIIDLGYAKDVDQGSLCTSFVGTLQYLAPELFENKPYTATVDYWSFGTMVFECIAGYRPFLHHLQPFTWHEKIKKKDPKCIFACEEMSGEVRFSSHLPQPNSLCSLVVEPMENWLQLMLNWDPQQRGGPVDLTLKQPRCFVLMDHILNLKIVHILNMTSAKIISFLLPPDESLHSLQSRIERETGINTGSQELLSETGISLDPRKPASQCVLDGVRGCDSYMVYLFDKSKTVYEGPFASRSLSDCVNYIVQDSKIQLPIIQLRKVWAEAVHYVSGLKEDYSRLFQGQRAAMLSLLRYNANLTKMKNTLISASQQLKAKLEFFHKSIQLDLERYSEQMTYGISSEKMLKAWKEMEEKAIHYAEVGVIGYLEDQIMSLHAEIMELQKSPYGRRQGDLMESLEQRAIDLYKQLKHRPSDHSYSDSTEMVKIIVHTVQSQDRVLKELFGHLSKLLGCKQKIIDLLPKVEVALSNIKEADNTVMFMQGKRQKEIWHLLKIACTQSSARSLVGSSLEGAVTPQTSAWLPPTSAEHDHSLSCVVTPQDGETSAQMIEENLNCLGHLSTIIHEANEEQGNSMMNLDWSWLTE
The experiment can be described thus: Inhibition of IKK-alpha (unknown origin) assessed as residual activity at 100 nM by KINOMEscan analysis relative to control.

Experiment [3] addresses T2, Inhibitor of nuclear factor kappa-B kinase subunit epsilon (Homo sapiens) (UniProt Q14164).
T2 sequence (whole entry): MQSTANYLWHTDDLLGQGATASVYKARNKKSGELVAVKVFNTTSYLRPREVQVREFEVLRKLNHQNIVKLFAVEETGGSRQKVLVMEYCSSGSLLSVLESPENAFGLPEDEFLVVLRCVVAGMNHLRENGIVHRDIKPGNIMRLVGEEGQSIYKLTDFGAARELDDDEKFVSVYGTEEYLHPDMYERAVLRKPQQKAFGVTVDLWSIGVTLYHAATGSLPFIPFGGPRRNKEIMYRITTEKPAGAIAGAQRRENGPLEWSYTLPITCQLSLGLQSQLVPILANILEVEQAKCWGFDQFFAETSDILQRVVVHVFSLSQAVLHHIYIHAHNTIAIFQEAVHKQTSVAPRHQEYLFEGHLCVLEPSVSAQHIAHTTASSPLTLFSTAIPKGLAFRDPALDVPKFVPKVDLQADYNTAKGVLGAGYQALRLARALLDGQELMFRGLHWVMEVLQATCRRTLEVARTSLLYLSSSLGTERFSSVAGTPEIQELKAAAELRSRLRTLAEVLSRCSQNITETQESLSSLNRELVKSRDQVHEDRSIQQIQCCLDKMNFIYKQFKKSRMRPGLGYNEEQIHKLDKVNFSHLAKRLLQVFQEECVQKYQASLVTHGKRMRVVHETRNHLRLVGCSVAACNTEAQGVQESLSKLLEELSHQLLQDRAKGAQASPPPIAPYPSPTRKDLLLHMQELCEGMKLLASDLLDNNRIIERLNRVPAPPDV
The experiment can be described thus: Inhibition of IKK-epsilon (unknown origin) assessed as residual activity at 100 nM by KINOMEscan analysis relative to control.

Experiment [4] addresses Dual specificity mitogen-activated protein kinase kinase 1 (Homo sapiens) (UniProt Q02750). The experiment can be described thus: Inhibition of MEK1 (unknown origin) assessed as residual activity at 100 nM by KINOMEscan analysis relative to control.
Experiment [5] has as its system Hepatocyte growth factor receptor (Homo sapiens), P08581 [M1250T]. The experiment can be described thus: Inhibition of MET M1250T mutant (unknown origin) assessed as residual activity at 100 nM by KINOMEscan analysis relative to control.
Experiment [6] addresses T3, Serine/threonine-protein kinase Nek9 (Homo sapiens) (UniProt Q8TD19).
T3 sequence (whole entry): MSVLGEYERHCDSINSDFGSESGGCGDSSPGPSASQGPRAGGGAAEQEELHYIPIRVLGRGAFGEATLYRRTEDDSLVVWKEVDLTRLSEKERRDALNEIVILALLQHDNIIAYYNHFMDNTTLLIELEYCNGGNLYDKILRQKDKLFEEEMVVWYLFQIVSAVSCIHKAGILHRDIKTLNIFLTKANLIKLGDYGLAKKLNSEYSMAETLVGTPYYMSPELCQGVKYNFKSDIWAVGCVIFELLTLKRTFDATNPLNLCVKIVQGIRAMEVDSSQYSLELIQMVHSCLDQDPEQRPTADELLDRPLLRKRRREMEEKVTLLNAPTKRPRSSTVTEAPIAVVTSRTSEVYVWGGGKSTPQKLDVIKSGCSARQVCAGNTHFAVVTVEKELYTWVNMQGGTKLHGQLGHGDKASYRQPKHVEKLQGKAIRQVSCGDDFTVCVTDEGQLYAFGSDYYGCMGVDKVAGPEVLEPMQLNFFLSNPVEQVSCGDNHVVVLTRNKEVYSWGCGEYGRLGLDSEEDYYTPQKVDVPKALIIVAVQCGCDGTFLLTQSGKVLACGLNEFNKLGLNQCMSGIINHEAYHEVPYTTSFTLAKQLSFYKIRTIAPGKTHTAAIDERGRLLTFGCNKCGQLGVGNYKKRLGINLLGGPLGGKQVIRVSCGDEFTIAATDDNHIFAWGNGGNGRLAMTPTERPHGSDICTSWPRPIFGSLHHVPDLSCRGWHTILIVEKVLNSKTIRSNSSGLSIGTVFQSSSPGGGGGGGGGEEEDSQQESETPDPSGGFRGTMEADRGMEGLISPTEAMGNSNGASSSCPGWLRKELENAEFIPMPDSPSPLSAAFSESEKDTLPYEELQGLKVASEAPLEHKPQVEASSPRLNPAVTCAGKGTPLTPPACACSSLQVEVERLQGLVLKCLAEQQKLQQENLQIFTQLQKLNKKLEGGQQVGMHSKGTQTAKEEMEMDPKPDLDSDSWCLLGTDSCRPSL
The experiment can be described thus: Inhibition of NEK9 (unknown origin) assessed as residual activity at 100 nM by KINOMEscan analysis relative to control.

Experiment [7] has as its target Serine/threonine-protein kinase RIO2 (Homo sapiens) (UniProt Q9BVS4). The experiment can be described thus: Inhibition of RIOK2 (unknown origin) assessed as residual activity at 100 nM by KINOMEscan analysis relative to control.
The target of experiment [8] is Wee1-like protein kinase 2 (Homo sapiens) (UniProt P0C1S8). The experiment can be described thus: Inhibition of WEE2 (unknown origin) assessed as residual activity at 100 nM by KINOMEscan analysis relative to control.
Wee1-like protein kinase 2 (Homo sapiens), sequence (P0C1S8 whole entry, looked up): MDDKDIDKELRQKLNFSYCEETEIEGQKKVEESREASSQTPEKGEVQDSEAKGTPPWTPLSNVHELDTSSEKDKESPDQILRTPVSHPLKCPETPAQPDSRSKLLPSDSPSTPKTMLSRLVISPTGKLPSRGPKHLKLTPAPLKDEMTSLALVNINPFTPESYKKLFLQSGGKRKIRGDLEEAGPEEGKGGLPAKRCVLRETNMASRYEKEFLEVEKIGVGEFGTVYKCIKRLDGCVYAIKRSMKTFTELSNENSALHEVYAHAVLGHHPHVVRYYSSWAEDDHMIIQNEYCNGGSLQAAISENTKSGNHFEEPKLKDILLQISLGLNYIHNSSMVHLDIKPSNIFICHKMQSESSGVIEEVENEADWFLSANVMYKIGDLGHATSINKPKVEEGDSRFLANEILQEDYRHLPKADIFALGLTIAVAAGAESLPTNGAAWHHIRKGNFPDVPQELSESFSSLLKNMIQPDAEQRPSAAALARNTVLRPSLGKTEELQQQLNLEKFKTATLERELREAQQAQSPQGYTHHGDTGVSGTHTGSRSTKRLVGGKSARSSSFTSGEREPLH

Serine/threonine-protein kinase RIO2 (Homo sapiens), sequence (Q9BVS4 whole entry, looked up): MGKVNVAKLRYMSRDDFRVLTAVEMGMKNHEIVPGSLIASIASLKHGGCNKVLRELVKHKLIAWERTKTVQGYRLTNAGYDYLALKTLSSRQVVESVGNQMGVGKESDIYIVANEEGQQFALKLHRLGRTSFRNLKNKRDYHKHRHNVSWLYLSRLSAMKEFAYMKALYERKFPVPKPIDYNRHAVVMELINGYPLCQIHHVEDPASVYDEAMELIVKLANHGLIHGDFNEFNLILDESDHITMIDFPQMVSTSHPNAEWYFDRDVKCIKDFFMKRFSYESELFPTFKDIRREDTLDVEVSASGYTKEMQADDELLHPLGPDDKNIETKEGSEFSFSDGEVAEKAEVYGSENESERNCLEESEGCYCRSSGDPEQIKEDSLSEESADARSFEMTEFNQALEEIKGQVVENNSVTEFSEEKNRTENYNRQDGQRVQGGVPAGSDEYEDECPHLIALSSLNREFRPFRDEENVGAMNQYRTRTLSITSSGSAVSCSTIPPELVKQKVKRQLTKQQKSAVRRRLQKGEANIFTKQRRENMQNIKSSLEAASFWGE
Dual specificity mitogen-activated protein kinase kinase 1 (Homo sapiens), sequence (Q02750 whole entry): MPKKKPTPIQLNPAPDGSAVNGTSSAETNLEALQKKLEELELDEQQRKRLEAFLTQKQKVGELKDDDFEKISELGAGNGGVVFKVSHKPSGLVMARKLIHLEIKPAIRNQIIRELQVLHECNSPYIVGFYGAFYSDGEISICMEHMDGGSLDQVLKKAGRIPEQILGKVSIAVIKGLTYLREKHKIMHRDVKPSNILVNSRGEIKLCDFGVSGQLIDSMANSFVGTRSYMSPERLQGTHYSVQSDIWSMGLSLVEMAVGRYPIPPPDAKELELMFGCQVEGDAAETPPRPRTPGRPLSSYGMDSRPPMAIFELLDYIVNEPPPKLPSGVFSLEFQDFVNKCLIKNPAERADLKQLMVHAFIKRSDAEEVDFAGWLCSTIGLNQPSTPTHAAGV

For the compound `COc1cc2ncnc(N[C@H](C)c3cccc4ccccc34)c2cc1OC`, the Activity amounted to 96% in experiment [1]; 79% in experiment [2]; 100% in experiment [3]; 98% in experiment [4]; 95% in experiment [5]; 100% in experiment [6]. In addition, the Activity turned out to be 65% in experiment [7] and 100% in experiment [8].
